“And” between values parts separate entries of the source, which are not always exact repeats. Equal values may be shown once. “Also recorded” adds a separate entry of the source. Read-outs that look alike come from different tables or passages of the source. Marks after values point to notes of the source that are not given here.
Experiments:
[1] = target: T1, MPro^1–199 (monomeric catalytic domain) (Severe acute respiratory syndrome coronavirus 2, UniProt P0DTC1); type: binding, SARS-CoV-2
[2] = target: T2, MPro^1–196 (Severe acute respiratory syndrome coronavirus 2, UniProt P0DTC1); design: species or system SARS-CoV-2
T2 construct: MPro^1–196 spans residues 1–196; 6His, spacer and TEV protease cleavage site (N, cleaved yes); made in house; host or cells: E. coli BL21-DE3

[3] = target: T3, MPro^1–199 (Severe acute respiratory syndrome coronavirus 2, UniProt P0DTC1); type: binding; conditions: for protein-inhibitor adduct in mass spectra: NMV: 50 µM mixtures, GC373: high concentrations, diluted to 20 µM in 5% acetic acid
T3 construct: made in house; host or cells: E. coli BL21-DE3

[4] = target: T4, MPro^10–306 (Severe acute respiratory syndrome coronavirus 2, UniProt P0DTC1); type: binding, SARS-CoV-2
T4 construct: MPro^10–306 spans the region 10–306 of MPro followed by GP-6His; GP-6His (C, cleaved yes); made in house; host or cells: E. coli BL21-DE3

[5] = test system: MPro^M (full-length monomeric double mutant E290A, R298A); conditions: ITC, cited from earlier work
[6] = target: T5, MPro^WT (Severe acute respiratory syndrome coronavirus 2, UniProt P0DTC1); type: binding; conditions: protein with 2x inhibitor, diluted to 20 µM in 5% acetic acid
T5 construct: The full-length wild-type (MPro^WT) was expressed and purified; made in house; host or cells: E. coli BL21-DE3

[7] = target: T2, MPro^1–196; type: binding, SARS-CoV-2
[8] = target: T3, MPro^1–199; design: species or system SARS-CoV-2
[9] = target: T1, MPro^1–199 (monomeric catalytic domain); type: binding, SARS-CoV-2; design: made in house; host or cells: E. coli BL21-DE3
[10] = test system: MPro^M; design: method as in earlier work; conditions: in presence of GC373; supplement numbering; cited from earlier work
[11] = target: T4, MPro^10–306; design: species or system SARS-CoV-2
[12] = target: T2, MPro^1–196; type: binding; conditions: NMV: 50 µM mixtures; GC373: high concentrations; diluted to 20 µM in 5% acetic acid
[13] = target: T5, MPro^WT; experiment: Monomer-dimer equilibrium of MPro^WT in the presence of inhibitor; design: species or system SARS-CoV-2; conditions: predicted because of thermodynamic stabilization of the dimer upon inhibitor binding
Experimental: Enzyme kinetics were carried out as described previously in reference 1. ^(a)Calculated from Lineweaver-Burk plot. ^(b)Calculated from plot of v vs [E].

[14] = target: T4, MPro^10–306; type: binding; conditions: 50 µM mixtures, diluted to 20 µM in 5% acetic acid
[15] = target: T3, MPro^1–199; type: biochemical, SARS-CoV-2

Structure (SMILES)	Kdimer.app [2]	protein-inhibitor adduct in mass spectra [3]	protein-inhibitor adduct in mass spectra [6]	N [7]	ΔG [7]	ΔH [7]	ΔS [7]	Kdimer.app [8]	apparent Kdimers [8]	dimer contribution (in monomer units) [8]	faster sedimenting peak, share of signal [8]	N [9]	ΔG [9]	ΔH [9]	ΔS [9]	Kdimer.app [11]	protein-inhibitor adduct in mass spectra [12]	Kdimer.app [13]	also measured
CC(C)C[C@H](NC(=O)OCc1ccccc1)C(=O)N[C@H](C=O)C[C@@H]1CCNC1=O [GC373]	>1200 µM	only the molecular ions of the unmodified protein	not observed	0.88 ± 0.09	-6 kcal/mol	-1.48 ± 0.24 kcal/mol	15 cal/mol/K	1200 ± 200 µM	more than 175 µM	20%	about 14%	0.9 ± 0.03	-6.2 kcal/mol	-2.4 ± 0.1 kcal/mol	12.7 cal/mol/K	>>1200 µM	only the molecular ions of the unmodified protein	≤2^(d) µM	fold increase in Kd (weaker binding) relative to MPro^WT [1]: 200 to 300 fold; net ΔG difference relative to MPro^WT [1]: about 3 kcal/mol; Kd ([1]; read-out: Kd range): 32 to 45 µM; dimer formation in SV-AUC [2]: no dimer was observed; N [4]: 0.54 ± 0.03; ΔG [4]: -6 kcal/mol; ΔH [4]: -1.38 ± 0.1 kcal/mol; ΔS [4]: 15.3 cal/mol/K; Kd ([4]; read-out: Kd = Ki): 44 ± 8 µM; N [5]: 1.07 ± 0.02; ΔG [5]: -7.2 kcal/mol; ΔH [5]: -6.0 ± 0.2 kcal/mol; ΔS [5]: 3.9 cal/mol/K; Kd ([5]; read-out: Kd = Ki): 6.2 µM and 6.13 µM; Kd ([7]; read-out: Kd = Ki): 45 ± 20 µM; Kd ([9]; read-out: Kd = Ki): 32 ± 5 µM; Kdimer.app [10]: 6.2^(e^) µM
CC(C)(C)[C@H](NC(=O)C(F)(F)F)C(=O)N1C[C@H]2[C@@H]([C@H]1C(=O)N[C@H](C#N)C[C@@H]1CCNC1=O)C2(C)C [NMV, nirmatrelvir]	510 ± 0.05 µM	adducts were observed	nearly equal distribution of MPro^WT and the MPro^WT-NMV adduct	1.05 ± 0.03	-6.7 kcal/mol	-1.8 ± 0.1 kcal/mol	16.3 cal/mol/K	180 ± 0.01 µM	more than 175 µM	52%	68%	0.97 ± 0.04	-6.5 kcal/mol	-3.9 ± 0.1 kcal/mol	8.8 cal/mol/K	>510 µM	adducts were observed	≤2^(d) µM	dimer contribution (in monomer units) [2]: 33%; stability of protein-adducts ([3]; 20 µM in acetic acid at ambient temperature (Figs. 7d and S10b)): stable for days; protein-inhibitor adduct in mass spectra [14]: very little binding; also recorded: adducts were observed; catalytic activity with the FRET substrate upon addition of inhibitor [15]: inhibited; slower sedimenting (2.31S) species, share of integrated signal [8]: 32%; dimer formation in SV-AUC [11]: no detectable dimer formation

Source: paper PMC9481597 (Communications Biology, 2022)
